Measurements: US8431565B2 (priority 2007, dated 2013)

Key:
rat CB2 receptor (rCB2) = molecular target: T1, rat CB2 receptor (rCB2) (Rattus norvegicus, UniProt Q9QZN9)
T1 sequence (Q9QZN9 1-360): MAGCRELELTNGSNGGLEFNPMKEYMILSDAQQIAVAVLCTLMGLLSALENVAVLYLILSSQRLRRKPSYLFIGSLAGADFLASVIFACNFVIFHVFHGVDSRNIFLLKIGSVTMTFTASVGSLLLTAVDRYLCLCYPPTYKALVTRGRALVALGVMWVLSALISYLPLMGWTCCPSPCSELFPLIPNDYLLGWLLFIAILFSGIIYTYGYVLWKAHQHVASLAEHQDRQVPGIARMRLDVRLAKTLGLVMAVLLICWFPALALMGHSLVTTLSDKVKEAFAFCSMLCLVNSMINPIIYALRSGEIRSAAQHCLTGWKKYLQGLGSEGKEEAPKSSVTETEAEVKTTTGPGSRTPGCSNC

[1] = molecular target: human CB1 receptor (hCB1) (Homo sapiens, UniProt P21554); format: cell-based
Chain of human CB1 receptor (hCB1) (P21554 whole entry): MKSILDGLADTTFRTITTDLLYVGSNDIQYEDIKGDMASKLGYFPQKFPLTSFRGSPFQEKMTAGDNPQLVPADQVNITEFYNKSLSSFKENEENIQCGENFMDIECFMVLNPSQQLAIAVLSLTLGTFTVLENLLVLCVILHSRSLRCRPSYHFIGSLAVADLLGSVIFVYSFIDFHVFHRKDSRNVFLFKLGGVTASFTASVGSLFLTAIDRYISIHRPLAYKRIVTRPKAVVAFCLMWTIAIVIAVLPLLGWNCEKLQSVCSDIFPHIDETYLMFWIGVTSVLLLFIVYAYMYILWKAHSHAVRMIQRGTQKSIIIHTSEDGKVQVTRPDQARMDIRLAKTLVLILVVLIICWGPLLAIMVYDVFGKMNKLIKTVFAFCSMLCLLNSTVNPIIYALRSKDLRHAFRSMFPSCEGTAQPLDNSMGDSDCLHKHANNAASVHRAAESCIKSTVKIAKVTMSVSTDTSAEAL

Work on `CNC(=O)[C@@H](NC(=O)c1nc(C2=CCNCC2)n2c1CN(C)CC2)C(C)(C)C` [Compound 274, (S)-N-(3,3-dimethyl-1-(methylamino)-1-oxobutan-2-yl)-7-methyl-3-(1,2,3,6-tetrahydropyridin-4-yl)-5,6,7,8-tetrahydroimidazo[1,5-a]pyrazine-1-carboxamide] yielded an EC50 (rat CB2 receptor (rCB2)) of 10 to 100 nM.
In the case of `CNC(=O)[C@H](CC(C)C)NC(=O)c1nc(-c2ccc(Cl)cc2F)n2c1CN(C)CC2` [Compound 276, (S)-3-(4-chloro-2-fluorophenyl)-7-methyl-N-(4-methyl-1-(methylamino)-1-oxopentan-2-yl)-5,6,7,8-tetrahydroimidazo[1,5-a]pyrazine-1-carboxamide], the EC50 (rat CB2 receptor (rCB2)) is reported as 10 to 100 nM.
With `CNC(=O)[C@H](CC(C)C)NC(=O)c1nc(-c2ccc(Cl)c(F)c2)n2c1CN(C)CC2` [Compound 277, (S)-3-(4-chloro-3-fluorophenyl)-7-methyl-N-(4-methyl-1-(methylamino)-1-oxopentan-2-yl)-5,6,7,8-tetrahydroimidazo[1,5-a]pyrazine-1-carboxamide] the EC50 (rat CB2 receptor (rCB2)) was 10 to 100 nM.
`CC(C)(C)c1noc([C@@H](NC(=O)c2nc(-c3ccccc3)n3c2CN(C2CC2)CC3)C(C)(C)C)n1` [Compound 284, (S)-N-(1-(3-tert-butyl-1,2,4-oxadiazol-5-yl)-2,2-dimethylpropyl)-7-cyclopropyl-3-phenyl-5,6,7,8-tetrahydroimidazo[1,5-a]pyrazine-1-carboxamide] was tested, and the EC50 (rat CB2 receptor (rCB2)) was 0.1 to 10 nM.
`CNC(=O)[C@@H](NC(=O)c1nc(/C=C/CN2CCCC2)n2c1CN(C)CC2)C(C)(C)C` [Compound 288, (S,E)-N-(3,3-dimethyl-1-(methylamino)-1-oxobutan-2-yl)-7-methyl-3-(3-(pyrrolidin-1-yl)prop-1-enyl)-5,6,7,8-tetrahydroimidazo[1,5-a]pyrazine-1-carboxamide] gave an EC50 (rat CB2 receptor (rCB2)) of 0.1 to 10 nM.
`CNC(=O)[C@@H](NC(=O)c1nc(-c2ccccc2)n2c1CN(c1cccc(Cl)n1)CC2)C(C)(C)C` [Compound 299, (S)-7-(6-chloropyridin-2-yl)-N-(3,3-dimethyl-1-(methylamino)-1-oxobutan-2-yl)-3-phenyl-5,6,7,8-tetrahydroimidazo[1,5-a]pyrazine-1-carboxamide] showed an EC50 (rat CB2 receptor (rCB2)) of 10 to 100 nM.
For `CNC(=O)[C@@H](NC(=O)c1nc(-c2ccccc2)n2c1CN(c1cncc(Cl)n1)CC2)C(C)(C)C` [Compound 300, (S)-7-(6-chloropyrazin-2-yl)-N-(3,3-dimethyl-1-(methylamino)-1-oxobutan-2-yl)-3-phenyl-5,6,7,8-tetrahydroimidazo[1,5-a]pyrazine-1-carboxamide], the EC50 (rat CB2 receptor (rCB2)) was 10 to 100 nM.
With `CCc1nc(C(=O)N[C@H](C(=O)NC)C(C)(C)C)c2n1CCN(C)C2` [Compound 310, (S)-N-(3,3-dimethyl-1-(methylamino)-1-oxobutan-2-yl)-3-ethyl-7-methyl-5,6,7,8-tetrahydroimidazo[1,5-a]pyrazine-1-carboxamide] the EC50 (rat CB2 receptor (rCB2)) was 10 to 100 nM.
Compound `CNC(=O)[C@@H](NC(=O)c1nc(-c2ccc(Cl)cc2F)n2c1CN(C(=O)OC(C)(C)C)CCC2)C(C)(C)C` [Compound 313] has an EC50 (rat CB2 receptor (rCB2)) of 10 to 100 nM.
`CNC(=O)[C@@H](NC(=O)c1nc(-c2ccc(Cl)cc2F)n2c1CN(CC(C)C)CCC2)C(C)(C)C` [Compound 322, (S)-3-(4-chloro-2-fluorophenyl)-N-(3,3-dimethyl-1-(methylamino)-1-oxobutan-2-yl)-8-isobutyl-6,7,8,9-tetrahydro-5H-imidazo[1,5-a][1,4]diazepine-1-carboxamide] showed an EC50 (rat CB2 receptor (rCB2)) of 10 to 100 nM.
With `CNC(=O)[C@@H](NC(=O)c1nc(-c2ccc3ccccc3c2)n2c1CN(C)CCC2)C(C)(C)C` [Compound 380, (S)-N-(3,3-dimethyl-1-(methylamino)-1-oxobutan-2-yl)-8-methyl-3-(naphthalen-2-yl)-6,7,8,9-tetrahydro-5H-imidazo[1,5-a][1,4]diazepine-1-carboxamide] the EC50 (rat CB2 receptor (rCB2)) was 10 to 100 nM.
`CNC(=O)[C@@H](NC(=O)c1nc(-c2ccc(C(C)(C)C)cc2)n2c1CN(C)CCC2)C(C)(C)C` [Compound 414, (S)-3-(4-tert-butylphenyl)-N-(3,3-dimethyl-1-(methylamino)-1-oxobutan-2-yl)-8-methyl-6,7,8,9-tetrahydro-5H-imidazo[1,5-a][1,4]diazepine-1-carboxamide] gave an EC50 (rat CB2 receptor (rCB2)) of 10 to 100 nM.
For `CNC(=O)[C@@H](NC(=O)c1nc(-c2cccc(C(F)(F)F)c2)n2c1CN(C)CCC2)C(C)(C)C` [Compound 438, (S)-N-(3,3-dimethyl-1-(methylamino)-1-oxobutan-2-yl)-8-methyl-3-(3-(trifluoromethyl)phenyl)-6,7,8,9-tetrahydro-5H-imidazo[1,5-a][1,4]diazepine-1-carboxamide], the EC50 (rat CB2 receptor (rCB2)) was 10 to 100 nM.
With `CNC(=O)[C@@H](NC(=O)c1nc(C2=CCCCO2)n2c1CN(C)CCC2)C(C)(C)C` [Compound 452, (S)-3-(3,4-dihydro-2H-pyran-6-yl)-N-(3,3-dimethyl-1-(methylamino)-1-oxobutan-2-yl)-8-methyl-6,7,8,9-tetrahydro-5H-imidazo[1,5-a][1,4]diazepine-1-carboxamide] the EC50 [1] was greater than 10000 nM.
For `CNC(=O)[C@@H](NC(=O)c1nc(/C=C/Cc2ccccc2)n2c1CN(C)CCC2)C(C)(C)C` [Compound 458, (S,E)-N-(3,3-dimethyl-1-(methylamino)-1-oxobutan-2-yl)-8-methyl-3-(3-phenylprop-1-enyl)-6,7,8,9-tetrahydro-5H-imidazo[1,5-a][1,4]diazepine-1-carboxamide], the EC50 (rat CB2 receptor (rCB2)) was 10 to 100 nM.
Work on `COC(=O)[C@@H](NC(=O)c1nc(-c2ccc(C)cc2F)n2c1CNCCC2)C(C)(C)C` [Compound 466] yielded an EC50 (rat CB2 receptor (rCB2)) of 10 to 100 nM.
`COC(=O)[C@@H](NC(=O)c1nc(-c2ccc(C)cc2F)n2c1CN(CC1CC1)CCC2)C(C)(C)C` [Compound 470, (S)-methyl 2-(8-(cyclopropylmethyl)-3-(2-fluoro-4-methylphenyl)-6,7,8,9-tetrahydro-5H-imidazo[1,5-a][1,4]diazepine-1-carboxamido)-3,3-dimethylbutanoate] showed an EC50 (rat CB2 receptor (rCB2)) of 10 to 100 nM.
`CNC(=O)[C@@H](NC(=O)c1nc(CCCC2CCCC2)n2c1CN(C)CCC2)C(C)(C)C` [Compound 494, (S)-3-(3-cyclopentylpropyl)-N-(3,3-dimethyl-1-(methylamino)-1-oxobutan-2-yl)-8-methyl-6,7,8,9-tetrahydro-5H-imidazo[1,5-a][1,4]diazepine-1-carboxamide] gave an EC50 (rat CB2 receptor (rCB2)) of 10 to 100 nM.
In the case of `Cc1ccc(-c2nc(C(=O)N[C@H](c3nc(C)no3)C(C)(C)C)c3n2CCCN(C(=O)OC(C)(C)C)C3)c(F)c1` [Compound 518, (S)-tert-butyl 1-(2,2-dimethyl-1-(3-methyl-1,2,4-oxadiazol-5-yl)propylcarbamoyl)-3-(2-fluoro-4-methylphenyl)-6,7-dihydro-5H-imidazo[1,5-a][1,4]diazepine-8(9H)-carboxylate], the EC50 (rat CB2 receptor (rCB2)) is reported as 10 to 100 nM.
`Cc1ccc(-c2nc(C(=O)N[C@H](c3nc(C)no3)C(C)(C)C)c3n2CCCNC3)c(F)c1` [Compound 520, (S)-N-(2,2-dimethyl-1-(3-methyl-1,2,4-oxadiazol-5-yl)propyl)-3-(2-fluoro-4-methylphenyl)-6,7,8,9-tetrahydro-5H-imidazo[1,5-a][1,4]diazepine-1-carboxamide] gave an EC50 (rat CB2 receptor (rCB2)) of 10 to 100 nM.
`Cc1ccc(-c2nc(C(=O)N[C@H](c3nc(C)no3)C(C)(C)C)c3n2CCCN(C)C3)c(F)c1` [Compound 522, (S)-N-(2,2-dimethyl-1-(3-methyl-1,2,4-oxadiazol-5-yl)propyl)-3-(2-fluoro-4-methylphenyl)-8-methyl-6,7,8,9-tetrahydro-5H-imidazo[1,5-a][1,4]diazepine-1-carboxamide] gave an EC50 (rat CB2 receptor (rCB2)) of 10 to 100 nM.
For `Cc1ccc(-c2nc(C(=O)N[C@H](c3nc(C)no3)C(C)(C)C)c3n2CCCN(C(C)C)C3)c(F)c1` [Compound 523, (S)-N-(2,2-dimethyl-1-(3-methyl-1,2,4-oxadiazol-5-yl)propyl)-3-(2-fluoro-4-methylphenyl)-8-isopropyl-6,7,8,9-tetrahydro-5H-imidazo[1,5-a][1,4]diazepine-1-carboxamide], the EC50 (rat CB2 receptor (rCB2)) was 10 to 100 nM.
`CNC(=O)[C@H](CC(C)(C)C)NC(=O)c1nc(-c2ccc(F)c(Cl)c2)n2c1CN(C)CCC2` [Compound 546, (S)-3-(3-chloro-4-fluorophenyl)-N-(4,4-dimethyl-1-(methylamino)-1-oxopentan-2-yl)-8-methyl-6,7,8,9-tetrahydro-5-imidazo[1,5-a][1,4]diazepine-1-carboxamide] was tested, and the EC50 [1] was greater than 10000 nM.
`CNC(=O)[C@@H](NC(=O)c1nc(-c2ccc(C(F)(F)F)cc2C(F)(F)F)n2c1CN(C)CCC2)C(C)(C)C` [Compound 617, (S)-3-(2,4-bis(trifluoromethyl)phenyl)-N-(3,3-dimethyl-1-(methylamino)-1-oxobutan-2-yl)-8-methyl-6,7,8,9-tetrahydro-5H-imidazo[1,5-a][1,4]diazepine-1-carboxamide] was tested, and the EC50 [1] was greater than 10000 nM.
`CNC(=O)[C@@H](NC(=O)c1nc(-c2ccnc(-c3ccnc(Cl)c3)c2)n2c1CN(C)CCC2)C(C)(C)C` [Compound 625, (S)-3-(2′-chloro-2,4′-bipyridin-4-yl)-N-(3,3-dimethyl-1-(methylamino)-1-oxobutan-2-yl)-8-methyl-6,7,8,9-tetrahydro-5H-imidazo[1,5-a][1,4]diazepine-1-carboxamide] showed an EC50 [1] greater than 10000 nM.
For `CNC(=O)[C@@H](NC(=O)c1nc(-c2cnccc2Cl)n2c1CN(C)CCC2)C(C)(C)C` [Compound 627, (S)-3-(4-chloropyridin-3-yl)-N-(3,3-dimethyl-1-(methylamino)-1-oxobutan-2-yl)-8-methyl-6,7,8,9-tetrahydro-5H-imidazo[1,5-a][1,4]diazepine-1-carboxamide], the EC50 [1] was greater than 10000 nM.
